Data taken from paper PMC8267177, “Cyclic Peptoid-Peptide Hybrids as Versatile Molecular Transporters” (Frontiers in Chemistry, 2021).
Non-standard residues stand in square brackets, D forms with d. Residues, ends and D or L forms follow the SMILES beside them. *: point of attachment. RhodamineB = CCN(CC)c1ccc2c(-c3ccccc3C(=O)*)c3ccc(=[N+](CC)CC)cc-3oc2c1; Gly(Nα-4-Cl-benzyl) = O=C(O)CNCc1ccc(Cl)cc1; Nphe = O=C(O)CNCc1ccccc1; NBuGly = CCCCNCC(=O)O; Nlys = NCCCCNCC(=O)O

assay: in vitro; format: cell-based; settings: human
Procedure: The cytotoxicity of the macrocyclic hybrids 15–24, as well as their conjugates 15-Rhod to 24-Rhod, was examined using a standard MTT assay in human epithelial cervix carcinoma (HeLa) cells. […] ([Mosmann, 1983]; [Tolosa et al., 2015]) After treatment of HeLa cells with different concentrations of the respective macrocycles 15–24 (0.50─50 µM) for 72 h, no significant cytotoxic effects were observed. […] As shown by many research groups that Rhodamine B by itself is not efficiently entering the cells showing therefore an LD50 > 50 μM, we assume that this the toxicity of the Rhodamine moiety might be higher when increasingly localizing in the mitochondria to a higher amount.
In a 96-well plate (Corning® Costar® 3596 96-Well Cell Culture Cluster), 1.0 × 10^4 HeLa-cells per well of a 96 well plate were cultivated for 16 h. Stock solutions of the single compounds in dimethylsulfoxide were diluted to 0.50 µm, 5.00 µm, and 50.0 µm with cell culture medium (DMEM + 10% FBS + 1% P/S) to ensure a final concentration of DMSO below 0.5%. 100 µL of the prepared DMEM diluted compounds were added to each well and the cells were incubated for 72 h. All experiments were performed in triplicates. Cells that were solely treated with the culture medium containing 0.5% of DMSO served as a negative control. After incubation, the positive control (cells in DMSO plus 0.5% DMSO) was treated with 1% Triton-X. To determine the viability of the cells 20 µL of a freshly prepared solution of 3-(4,5-dimethylthiazol-2-yl)-2,5-diphenyltetrazolium bromide (MTT, 2.73 mg/mL, Sigma-Aldrich®) in culture medium were added to each well and incubated at 37 °C for 4 h. The reaction was stopped using 100 µL of Solubilization Solution / Stop Mix (CellTiter 96® Non-Radioactive Cell Proliferation Assay, Promega). After 24 h, the absorption (A) of every well at 595 nm was monitored using a 96-well plate reader (Ultra Microplate Reader ELx808, Biotech Instruments Inc.).

SMILES | IC50 at 72 h
CCCCN1CC(=O)N(Cc2ccccc2)CC(=O)N(CCCCN)CC(=O)N[C@@H](Cc2ccccc2)C(=O)N[C@@H](Cc2ccccc2)C(=O)N(CCCC)CC1=O [compound 24, cyclo-(l-Phe-N3m-N3m-N1ph-N4am-l-Phe)] (cyclo(FF[NBuGly][NBuGly][Nphe][Nlys])) | > 50 µM
CCCCN1CC(=O)N(Cc2ccccc2)CC(=O)N(CCCCNC(=O)c2ccccc2-c2c3ccc(=[N+](CC)CC)cc-3oc3cc(N(CC)CC)ccc23)CC(=O)N[C@@H](Cc2ccccc2)C1=O [17-Rhod, cyclo-(l-Phe-N3m-N1ph-N4am(Rhod))] (cyclo(F[NBuGly][Nphe][Nlys](RhodamineB))) | > 50 µM
NCCCCN1CC(=O)N[C@@H](Cc2ccccc2)C(=O)N[C@@H](Cc2ccccc2)C(=O)N(Cc2ccccc2)CC(=O)N(Cc2ccccc2)CC(=O)N(Cc2ccccc2)CC1=O [compound 22, cyclo-(l-Phe-N1ph-N1ph-N1ph-N4am-l-Phe)] (cyclo(FF[Nphe][Nphe][Nphe][Nlys])) | > 50 µM
NCCCCN1CC(=O)N[C@@H](Cc2ccccc2)C(=O)N[C@@H](Cc2ccccc2)C(=O)N(Cc2ccc(Cl)cc2)CC(=O)N(Cc2ccc(Cl)cc2)CC(=O)N(Cc2ccc(Cl)cc2)CC1=O [compound 23, cyclo-(l-Phe-N1ph^pCl-N1ph^pCl-N1ph^pCl-N4am-l-Phe)] (cyclo(FF[Gly(Nα-4-Cl-benzyl)][Gly(Nα-4-Cl-benzyl)][Gly(Nα-4-Cl-benzyl)][Nlys])) | 20 µM
NCCCCN1CC(=O)N(Cc2ccccc2)CC(=O)N[C@@H](Cc2ccc(O)cc2)C(=O)N[C@@H](Cc2ccccc2)C1=O [compound 18, cyclo-(l-Phe-N4am-N1ph-l-Tyr)] (cyclo(F[Nlys][Nphe]Y)) | > 50 µM
CCCCN1CC(=O)N[C@@H](CCCCNC(=O)c2ccccc2-c2c3ccc(=[N+](CC)CC)cc-3oc3cc(N(CC)CC)ccc23)C(=O)N[C@@H](Cc2ccc(O)cc2)C(=O)N(CCCC)CC1=O [21-Rhod, cyclo-(l-Tyr-N3m-N3m-l-Lys(Rhod))] (cyclo(K(RhodamineB)Y[NBuGly][NBuGly])) | 36 µM
NCCCC[C@@H]1NC(=O)CN(Cc2ccc(Cl)cc2)C(=O)CN(Cc2ccc(Cl)cc2)C(=O)[C@H](Cc2c[nH]c3ccccc23)NC1=O [compound 20, cyclo-(l-Trp-N1ph^pCl-N1ph^pCl-l-Lys)] (cyclo([Gly(Nα-4-Cl-benzyl)][Gly(Nα-4-Cl-benzyl)]KW)) | > 50 µM
CCN(CC)c1ccc2c(-c3ccccc3C(=O)NCCCCN3CC(=O)N[C@@H](Cc4ccccc4)C(=O)N(Cc4ccccc4)CC(=O)N(Cc4ccccc4)CC3=O)c3ccc(=[N+](CC)CC)cc-3oc2c1 [15-Rhod, cyclo-(l-Phe-N1ph-N1ph-N4am(Rhod))] (cyclo(F[Nphe][Nphe][Nlys](RhodamineB))) | > 50 µM

Other lines, results leading:

IC50 at 72 h | SMILES
> 50 µM | CCCCN1CC(=O)N(Cc2ccccc2)CC(=O)N(CCCCN)CC(=O)N[C@@H](Cc2ccccc2)C1=O [compound 17, cyclo-(l-Phe-N3m-N1ph-N4am)] (cyclo(F[NBuGly][Nphe][Nlys]))
> 50 µM | NCCCCN1CC(=O)N(Cc2ccccc2)CC(=O)N[C@@H](Cc2ccccc2)C(=O)N(Cc2ccc(Cl)cc2)CC1=O [compound 16, cyclo-(l-Phe-N1ph^pCl-N4am-N1ph)] (cyclo(F[Gly(Nα-4-Cl-benzyl)][Nlys][Nphe]))
> 50 µM | NCCCCN1CC(=O)N[C@@H](Cc2ccccc2)C(=O)N(Cc2ccccc2)CC(=O)N(Cc2ccccc2)CC1=O [compound 15, cyclo-(l-Phe-N1ph-N1ph-N4am)] (cyclo(F[Nphe][Nphe][Nlys]))
> 50 µM | NCCCC[C@@H]1NC(=O)CN(Cc2ccccc2)C(=O)CN(Cc2ccccc2)C(=O)[C@H](Cc2c[nH]c3ccccc23)NC1=O [compound 19, cyclo-(l-Trp-N1ph-N1ph-l-Lys)] (cyclo(KW[Nphe][Nphe]))
